Earlier results as cited in patent US7935365B2, “Glycerophospholipids for the improvement of cognitive functions” (Enzymotec, Ltd., priority 2003, dated 2011).
Where two headings read alike, the source gives them in different places.

| Structure (SMILES) | Improvement of the ADHD index, previously reported (Alhambra et al. (1995)) | Improvement of the ADHD index, previously reported (Rugino and Copley (2001)) [SD] |
| --- | --- | --- |
| COC(=O)C(c1ccccc1)C1CCCCN1 (racemic) [methylphenidate, DL-threo-Methylphenidate] | exceed 80% | – |
| NC(=O)C[S+]([O-])C(c1ccccc1)c1ccccc1 (centres unmarked) [modafinil] | – | > 2.5 |
